Earlier results, collected in patent US12281304B2, “Compositions and methods for treating and preventing muscular disorders and dystrophies, steroid side effects, and inflammation” (Children's National Medical Center, priority 2018, dated 2025).

How the values were obtained:
[1] = preclinical mdx mouse and human Phase I trials; cited from earlier work
[2] = molecular target: T1, glucocorticoid receptor (GR) (Homo sapiens, UniProt P04150); conditions: cited from earlier work
T1 sequence (P04150 1-777): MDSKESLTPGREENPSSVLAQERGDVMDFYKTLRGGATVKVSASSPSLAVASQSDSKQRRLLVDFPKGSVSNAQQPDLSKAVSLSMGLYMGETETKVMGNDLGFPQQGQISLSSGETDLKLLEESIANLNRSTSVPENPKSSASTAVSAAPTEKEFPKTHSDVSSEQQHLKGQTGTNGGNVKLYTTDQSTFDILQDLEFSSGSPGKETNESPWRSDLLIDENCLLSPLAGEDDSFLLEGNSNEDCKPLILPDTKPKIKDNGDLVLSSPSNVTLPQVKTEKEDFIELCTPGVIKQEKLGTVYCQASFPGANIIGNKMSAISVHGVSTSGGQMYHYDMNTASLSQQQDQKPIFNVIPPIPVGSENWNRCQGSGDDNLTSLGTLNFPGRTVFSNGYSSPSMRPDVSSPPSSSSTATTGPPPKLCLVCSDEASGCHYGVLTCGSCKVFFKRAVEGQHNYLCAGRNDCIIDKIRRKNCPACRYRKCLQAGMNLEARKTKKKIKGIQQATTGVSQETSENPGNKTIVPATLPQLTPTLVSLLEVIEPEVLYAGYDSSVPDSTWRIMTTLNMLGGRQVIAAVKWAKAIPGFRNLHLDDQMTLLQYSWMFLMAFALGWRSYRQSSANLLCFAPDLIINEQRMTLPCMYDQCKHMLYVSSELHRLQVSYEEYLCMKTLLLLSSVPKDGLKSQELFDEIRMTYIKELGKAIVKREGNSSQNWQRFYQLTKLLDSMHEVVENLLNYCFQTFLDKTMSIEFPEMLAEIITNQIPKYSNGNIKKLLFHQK

C[C@@H]1C[C@H]2[C@@H]3CCC4=CC(=O)C=C[C@]4(C)C3=CC[C@]2(C)[C@@]1(O)C(=O)CO [vamorolone]
steroidal side effects in comparison to prednisone [1]: avoids or has substantially reduced steroidal side effects in comparison to prednisone | binding to the GR [2]: high affinity
